In US20020137929A1, “1 - (3-heterocyclylphenyl) isothiourea, -isourea, -guanidine and -amidine herbicidal agents” (Intellectual Property Department, BASF Aktiengesellschaft, priority 1998, published 2002):

Columns and labels:
CYPSE (Flatsedge) = assay: Postemergence weed control under flooded paddy conditions; format: in vivo, Cyperus serotinus; conditions: postemergence weeds
Outline: (§1)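 Herbicidal effect is judged by eye on a 0–9 scale versus control, 3–4 weeks after dosing. Dosing is into flood water kept 1.5–3 cm over the soil, at about 0.0313–0.500 kg/ha in aqueous/acetone 50/50 v/v, on 3–5 cm weeds and 1.5–2.5-leaf rice seedlings.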

ABUTH (Velvetleaf) = assay: Postemergence herbicidal evaluation; format: in vivo, Abutilon theophrasti; conditions: for ABUTH herbicidal rating: postemergence
Outline: (§2)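 Rate range approx. 0.0156–0.500 kg/ha. Foliar application at 40 psi to ~2-week seedlings; surfactant 0.5% TWEEN 20 in 50/50 acetone/water. Evaluation 4–5 wk post-treatment by 0–9 visual injury score, means of replicate tests.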

[1] = system: SAGPY (Arrowhead (Pygmaea)); assay: Postemergence weed control under flooded paddy conditions; format: in vivo, Sagittaria pygmaea; conditions: postemergence weeds
Outline: as §1

SETVI (Foxtail, Green) [2] = assay: Preemergence herbicidal evaluation; format: in vivo, Setaria viridis; conditions: rated 4-5 weeks after treatment; for SETVI rating: preemergence, 0-9 scale
Outline: (§3)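 Visual 0-9 rating vs control (stand, vigor, malformation, size, chlorosis, overall appearance), scored 4-5 wk after spraying. Seeded soil cups were treated preemergence with compound in aqueous acetone, ~0.0156-0.500 kg/ha equivalent.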

[3] = system: CHEAL (Lambsquarters, Common); assay: Postemergence herbicidal evaluation; format: in vivo, Chenopodium album; conditions: for CHEAL herbicidal rating: postemergence
Outline: as §2

AMBEL (Ragweed, Common) = assay: Preemergence herbicidal evaluation; format: in vivo, Ambrosia artemisifolia; conditions: rated 4-5 weeks after treatment; for AMBEL rating: preemergence, 0-9 scale
Outline: as §3

ORYSAT (Rice, Tebonnet) = assay: Postemergence herbicidal evaluation; format: in vivo, Oryza sativa, (L.) Tebonnet; conditions: for ORYSAT herbicidal rating: postemergence
Outline: as §2

[4] = system: ECHORC (Watergrass (Calif.)); assay: Postemergence weed control under flooded paddy conditions; format: in vivo, Echinochloa oryzoides; conditions: postemergence weeds
Outline: as §1

SETVI (Foxtail, Green) [5] = assay: Postemergence herbicidal evaluation; format: in vivo, Setaria viridis; conditions: for SETVI herbicidal rating: postemergence
Outline: as §2

[6] = system: TRZAWR (Wheat, Winter, cv Riband); assay: Postemergence herbicidal evaluation; format: in vivo, Triticum aestivum; conditions: for TRZAWR herbicidal rating: postemergence
Outline: as §2

CYPIR (Rice Flatsedge) = assay: Preemergence weed control under flooded paddy conditions; format: in vivo, Cyperus iria; conditions: rated 3-4 weeks after treatment
Outline: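 First, seeds or propagules go into the top 0.5 cm of silt loam; next, water is held 1.5 to 3 cm over the soil; then compound (50/50 acetone/water) is pipetted into it at about 0.0313 to 0.500 kg/ha; finally plants are rated visually 0-9 after three to four weeks.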

[7] = system: GLXMAW (Soybean, Williams); assay: Postemergence herbicidal evaluation; format: in vivo, Glycine max, (L.) Merr. cv Williams; conditions: for GLXMAW herbicidal rating: postemergence
Outline: as §2

ZEAMX (Corn, Field) = assay: Postemergence herbicidal evaluation; format: in vivo, Zea mays; conditions: for ZEAMX herbicidal rating: postemergence
Outline: as §2

GALAP (Galium) = assay: Preemergence herbicidal evaluation; format: in vivo, Galium aparine; conditions: rated 4-5 weeks after treatment; for GALAP rating: preemergence, 0-9 scale
Outline: as §3

[8] = rate 0.0313 kg/ha, 3-4 weeks after treatment
[9] = rate 0.0625 kg/ha, 3-4 weeks after treatment
[10] = rate 0.1250 kg/ha, 3-4 weeks after treatment
[11] = rate 0.2500 kg/ha, 3-4 weeks after treatment
[12] = Rate 0.0313 kg/ha, rated 3 to 4 weeks after treatment
[13] = Rate 0.0625 kg/ha, rated 3 to 4 weeks after treatment
[14] = Rate 0.1250 kg/ha, rated 3 to 4 weeks after treatment
[15] = Rate 0.2500 kg/ha, rated 3 to 4 weeks after treatment
[16] = Rate 0.5000 kg/ha, rated 3 to 4 weeks after treatment

SMILES: CCOC(=O)CN1C(=O)C(Cc2ccccc2OC(C)C(=O)OC)SC1=Nc1cc(-n2c(=O)cc(C(F)(F)F)n(C)c2=O)c(F)cc1Cl (centres unmarked) [Compound 50, 2-{{2-Chloro-5-[3,6-dihydro-3-methyl-2,6-dioxo-4-(trifluoromethyl)-1(2H)-pyrimidinyl]-4-fluoro-phenyl}imino}-5-(o-hydroxybenzyl)-4-oxo-3-thiazolidineacetic acid, ethyl ester, ester with methyl lactate]
- Herbicidal rating CYPSE (CYPSE (Flatsedge); [8]): 0.0
- Herbicidal rating CYPSE (CYPSE (Flatsedge); [9]): 0.0
- Herbicidal rating CYPSE (CYPSE (Flatsedge); [10]): 0.0
- Herbicidal rating CYPSE (CYPSE (Flatsedge); [11]): 0.0
- Postemergence herbicidal rating ABUTH (ABUTH (Velvetleaf); Rate 0.0156 kg/ha): 6.0
- Postemergence herbicidal rating ABUTH (ABUTH (Velvetleaf); Rate 0.0313 kg/ha): 9.0
- Postemergence herbicidal rating ABUTH (ABUTH (Velvetleaf); Rate 0.0625 kg/ha): 9.0
- Herbicidal rating SAGPY [1, 8]: 2.0
- Herbicidal rating SAGPY [1, 9]: 2.0
- Herbicidal rating SAGPY [1, 10]: 3.0
- Herbicidal rating SAGPY [1, 11]: 3.0
- Preemergence herbicidal rating SETVI (SETVI (Foxtail, Green) [2]; rate 0.0625 kg/ha): 0.0
- Preemergence herbicidal rating SETVI (SETVI (Foxtail, Green) [2]; rate 0.1250 kg/ha): 0.0
- Preemergence herbicidal rating SETVI (SETVI (Foxtail, Green) [2]; rate 0.2500 kg/ha): 0.0
- Postemergence herbicidal rating CHEAL ([3]; Rate 0.0156 kg/ha): 0.0
- Postemergence herbicidal rating CHEAL ([3]; Rate 0.0313 kg/ha): 3.0
- Postemergence herbicidal rating CHEAL ([3]; Rate 0.0625 kg/ha): 5.0
- Preemergence herbicidal rating AMBEL (AMBEL (Ragweed, Common); rate 0.0625 kg/ha): 0.0
- Preemergence herbicidal rating AMBEL (AMBEL (Ragweed, Common); rate 0.1250 kg/ha): 0.0
- Preemergence herbicidal rating AMBEL (AMBEL (Ragweed, Common); rate 0.2500 kg/ha): 0.0
- Postemergence herbicidal rating ORYSAT (ORYSAT (Rice, Tebonnet); Rate 0.0156 kg/ha): 1.0
- Postemergence herbicidal rating ORYSAT (ORYSAT (Rice, Tebonnet); Rate 0.0313 kg/ha): 1.0
- Postemergence herbicidal rating ORYSAT (ORYSAT (Rice, Tebonnet); Rate 0.0625 kg/ha): 2.0
- Herbicidal rating ECHORC [4, 8]: 4.0
- Herbicidal rating ECHORC [4, 9]: 7.0
- Herbicidal rating ECHORC [4, 10]: 7.0
- Herbicidal rating ECHORC [4, 11]: 7.0
- Postemergence herbicidal rating SETVI (SETVI (Foxtail, Green) [5]; Rate 0.0156 kg/ha): 0.0
- Postemergence herbicidal rating SETVI (SETVI (Foxtail, Green) [5]; Rate 0.0313 kg/ha): 0.0
- Postemergence herbicidal rating SETVI (SETVI (Foxtail, Green) [5]; Rate 0.0625 kg/ha): 2.0
- Postemergence herbicidal rating TRZAWR ([6]; Rate 0.0156 kg/ha): 3.0
- Postemergence herbicidal rating TRZAWR ([6]; Rate 0.0313 kg/ha): 3.5
- Postemergence herbicidal rating TRZAWR ([6]; Rate 0.0625 kg/ha): 4.5
- Herbicidal rating CYPIR (CYPIR (Rice Flatsedge); 0.0313 kg/ha): 0.0
- Herbicidal rating CYPIR (CYPIR (Rice Flatsedge); 0.0625 kg/ha): 0.0
- Herbicidal rating CYPIR (CYPIR (Rice Flatsedge); 0.1250 kg/ha): 0.0
- Herbicidal rating CYPIR (CYPIR (Rice Flatsedge); 0.2500 kg/ha): 0.0
- Postemergence herbicidal rating GLXMAW ([7]; Rate 0.0156 kg/ha): 5.5
- Postemergence herbicidal rating GLXMAW ([7]; Rate 0.0313 kg/ha): 5.5
- Postemergence herbicidal rating GLXMAW ([7]; Rate 0.0625 kg/ha): 5.5
- Postemergence herbicidal rating ZEAMX (ZEAMX (Corn, Field); Rate 0.0156 kg/ha): 5.0
- Postemergence herbicidal rating ZEAMX (ZEAMX (Corn, Field); Rate 0.0313 kg/ha): 5.0
- Postemergence herbicidal rating ZEAMX (ZEAMX (Corn, Field); Rate 0.0625 kg/ha): 5.5
- Preemergence herbicidal rating GALAP (GALAP (Galium); rate 0.0625 kg/ha): 0.0
- Preemergence herbicidal rating GALAP (GALAP (Galium); rate 0.1250 kg/ha): 0.0
- Preemergence herbicidal rating GALAP (GALAP (Galium); rate 0.2500 kg/ha): 0.0

SMILES: CCOC(=O)CN1C(=O)C(CC(=O)OC(C)C(=O)OCC)S/C1=N/c1cc(-n2c(=O)cc(C(F)(F)F)n(C)c2=O)c(F)cc1Cl (centres unmarked) [Compound 87]
- Herbicidal rating CYPSE (CYPSE (Flatsedge); [12]): 0.0
- Herbicidal rating CYPSE (CYPSE (Flatsedge); [13]): 0.0
- Herbicidal rating CYPSE (CYPSE (Flatsedge); [14]): 5.0
- Herbicidal rating CYPSE (CYPSE (Flatsedge); [15]): 5.0
- Herbicidal rating CYPSE (CYPSE (Flatsedge); [16]): 5.0
- ABUTH herbicidal rating (ABUTH (Velvetleaf); rate 0.0156 kg/ha): 2.0
- ABUTH herbicidal rating (ABUTH (Velvetleaf); rate 0.0313 kg/ha): 4.0
- ABUTH herbicidal rating (ABUTH (Velvetleaf); rate 0.0625 kg/ha): 9.0
- ABUTH herbicidal rating (ABUTH (Velvetleaf); rate 0.1250 kg/ha): 9.0
- ABUTH herbicidal rating (ABUTH (Velvetleaf); rate 0.2500 kg/ha): 9.0
- Herbicidal rating SAGPY [1, 12]: 0.0
- Herbicidal rating SAGPY [1, 13]: 4.0
- Herbicidal rating SAGPY [1, 14]: 4.0
- Herbicidal rating SAGPY [1, 15]: 5.0
- Herbicidal rating SAGPY [1, 16]: 7.0
- SETVI rating (SETVI (Foxtail, Green) [2]; 0.1250 kg/ha): 0.0
- SETVI rating (SETVI (Foxtail, Green) [2]; 0.2500 kg/ha): 0.0
- SETVI rating (SETVI (Foxtail, Green) [2]; 0.5000 kg/ha): 9.0
- CHEAL herbicidal rating ([3]; rate 0.0156 kg/ha): 0.0
- CHEAL herbicidal rating ([3]; rate 0.0313 kg/ha): 0.0
- CHEAL herbicidal rating ([3]; rate 0.0625 kg/ha): 3.0
- CHEAL herbicidal rating ([3]; rate 0.1250 kg/ha): 4.0
- CHEAL herbicidal rating ([3]; rate 0.2500 kg/ha): 9.0
- AMBEL rating (AMBEL (Ragweed, Common); 0.1250 kg/ha): 0.0
- AMBEL rating (AMBEL (Ragweed, Common); 0.2500 kg/ha): 0.0
- AMBEL rating (AMBEL (Ragweed, Common); 0.5000 kg/ha): 9.0
- ORYSAT herbicidal rating (ORYSAT (Rice, Tebonnet); rate 0.0156 kg/ha): 0.0
- ORYSAT herbicidal rating (ORYSAT (Rice, Tebonnet); rate 0.0313 kg/ha): 0.5
- ORYSAT herbicidal rating (ORYSAT (Rice, Tebonnet); rate 0.0625 kg/ha): 1.0
- ORYSAT herbicidal rating (ORYSAT (Rice, Tebonnet); rate 0.1250 kg/ha): 1.5
- ORYSAT herbicidal rating (ORYSAT (Rice, Tebonnet); rate 0.2500 kg/ha): 4.0
- Herbicidal rating ECHORC [4, 12]: 0.0
- Herbicidal rating ECHORC [4, 13]: 0.0
- Herbicidal rating ECHORC [4, 14]: 2.0
- Herbicidal rating ECHORC [4, 15]: 3.0
- Herbicidal rating ECHORC [4, 16]: 3.0
- SETVI herbicidal rating (SETVI (Foxtail, Green) [5]; rate 0.0156 kg/ha): 0.0
- SETVI herbicidal rating (SETVI (Foxtail, Green) [5]; rate 0.0313 kg/ha): 0.0
- SETVI herbicidal rating (SETVI (Foxtail, Green) [5]; rate 0.0625 kg/ha): 2.0
- SETVI herbicidal rating (SETVI (Foxtail, Green) [5]; rate 0.1250 kg/ha): 7.0
- SETVI herbicidal rating (SETVI (Foxtail, Green) [5]; rate 0.2500 kg/ha): 7.0
- TRZAWR herbicidal rating ([6]; rate 0.0156 kg/ha): 2.5
- TRZAWR herbicidal rating ([6]; rate 0.0313 kg/ha): 3.0
- TRZAWR herbicidal rating ([6]; rate 0.0625 kg/ha): 4.5
- TRZAWR herbicidal rating ([6]; rate 0.1250 kg/ha): 4.5
- TRZAWR herbicidal rating ([6]; rate 0.2500 kg/ha): 6.0
- CYPIR herbicidal effect rating (CYPIR (Rice Flatsedge); 0.0313 kg/ha): 5.0
- CYPIR herbicidal effect rating (CYPIR (Rice Flatsedge); 0.0625 kg/ha): 5.0
- CYPIR herbicidal effect rating (CYPIR (Rice Flatsedge); 0.1250 kg/ha): 5.0
- CYPIR herbicidal effect rating (CYPIR (Rice Flatsedge); 0.2500 kg/ha): 5.0
- CYPIR herbicidal effect rating (CYPIR (Rice Flatsedge); 0.5000 kg/ha): 7.0
- GLXMAW herbicidal rating ([7]; rate 0.0156 kg/ha): 4.5
- GLXMAW herbicidal rating ([7]; rate 0.0313 kg/ha): 5.5
- GLXMAW herbicidal rating ([7]; rate 0.0625 kg/ha): 7.5
- GLXMAW herbicidal rating ([7]; rate 0.1250 kg/ha): 8.0
- GLXMAW herbicidal rating ([7]; rate 0.2500 kg/ha): 9.0
- ZEAMX herbicidal rating (ZEAMX (Corn, Field); rate 0.0156 kg/ha): 4.0
- ZEAMX herbicidal rating (ZEAMX (Corn, Field); rate 0.0313 kg/ha): 4.5
- ZEAMX herbicidal rating (ZEAMX (Corn, Field); rate 0.0625 kg/ha): 5.5
- ZEAMX herbicidal rating (ZEAMX (Corn, Field); rate 0.1250 kg/ha): 7.5
- ZEAMX herbicidal rating (ZEAMX (Corn, Field); rate 0.2500 kg/ha): 8.0
- GALAP rating (GALAP (Galium); 0.1250 kg/ha): 0.0
- GALAP rating (GALAP (Galium); 0.2500 kg/ha): 0.0
- GALAP rating (GALAP (Galium); 0.5000 kg/ha): 7.0
